For 1 compound, Kd results are on record in patent publication US8835648B2, “Hedgehog pathway antagonists and therapeutic applications thereof” (Siena Biotech S.p.A., priority 2009, dated 2014).

In assay [1] the target is T1, Smo receptor (Homo sapiens, UniProt Q99835).
T1 construct: expressed in transfected cells; template pCMV6-XL5-Smo, Origene cat; TC122724
In words: Bodipy-Cyclopamine specific binding curve, Smo-FLAG transfected cell line clone 3-5. The conditions noted are these: stable Smo-FLAG transfected cell line clone 3-5.

Assay [2] has as its system 293FlpIN/clone E-3 mock transfected cells. The assay can be described thus: Bodipy-Cyclopamine specific binding curve, mock transfected cell line clone E-3. The conditions noted are these: stable mock transfected cell line clone E-3.

pKd: −log10 of the molar value.

T1 sequence (Q99835 28-787): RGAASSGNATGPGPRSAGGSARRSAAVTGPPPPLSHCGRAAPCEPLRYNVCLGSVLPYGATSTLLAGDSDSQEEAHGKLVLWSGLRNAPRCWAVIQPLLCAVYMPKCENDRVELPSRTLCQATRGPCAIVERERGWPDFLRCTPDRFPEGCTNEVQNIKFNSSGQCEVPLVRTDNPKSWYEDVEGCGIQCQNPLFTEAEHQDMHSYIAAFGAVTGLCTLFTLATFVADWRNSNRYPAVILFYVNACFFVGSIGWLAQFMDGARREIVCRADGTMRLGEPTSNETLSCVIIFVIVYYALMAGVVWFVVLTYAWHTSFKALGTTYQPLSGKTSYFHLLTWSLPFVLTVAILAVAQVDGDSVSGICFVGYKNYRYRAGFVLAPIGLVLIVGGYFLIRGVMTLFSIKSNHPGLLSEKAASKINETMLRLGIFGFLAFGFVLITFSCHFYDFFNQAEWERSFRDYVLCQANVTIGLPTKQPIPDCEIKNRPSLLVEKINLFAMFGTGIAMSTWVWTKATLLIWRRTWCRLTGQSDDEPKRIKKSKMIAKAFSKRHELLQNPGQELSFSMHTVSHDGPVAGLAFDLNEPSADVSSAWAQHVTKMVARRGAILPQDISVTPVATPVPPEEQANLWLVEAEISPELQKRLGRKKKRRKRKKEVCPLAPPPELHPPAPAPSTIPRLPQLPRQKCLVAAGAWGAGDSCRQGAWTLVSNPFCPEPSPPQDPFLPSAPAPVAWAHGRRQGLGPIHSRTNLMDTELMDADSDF

As for `CC1=C2CC3C(CC=C4C[C@@H](O)CCC43C)C2CCC12O[C@@H]1CC(C)CN(CCNC(=O)CCCCCNC(=O)CCC3=[N+]4C(=Cc5c(C)cc(C)n5[B-]4(F)F)C=C3)C1C2C` (some centres unmarked) [Bodipy-Cyclopamine], the figures for the pKd in assay [1] and in assay [2] were 7.35 and 6.94, respectively.
